In general, pIC50 refers to the negative decadic logarithm of the IC50, by convention in mol/L.

Experiment [1] addresses T1, PRKACA (Homo sapiens, UniProt P17612).
T1 construct: purchased Millipore 539482
The experiment in a line: PRKACA assay at Km (EZ Reader 2 electrophoretic mobility shift). It is filed as biochemical. Conditions: 5 μM ATP (Km), 1 μM Kemptide, 90 minutes at 25 C; read-out: Enz PRKACA IC50. The procedure:
(§1) A Perkin Elmer electrophoretic mobility shift platform (the EZ Reader 2) was used to assess the activity of test compounds against a kinase of interest. Fluorescently labeled substrate peptide was incubated in the presence of kinase, ATP, and the test compound, so that a portion of the peptide was phosphorylated by the enzyme. At the end of the reaction, the mix of phosphorylated (product) and non-phosphorylated (substrate) peptide containing solutions was passed through the microfluidic system of the Perkin Elmer EZ Reader 2 under an applied potential difference. The presence of the phosphate group on the product peptide provided a difference in mass and charge between those of the substrate peptide, resulting in a separation of the substrate and product pools in the sample. As the stopped solutions passed under the instrument's LED light the phosphorylated and un-phosphorylated fluorophore bound peptides were detected and resolved as separate peaks. The ratio between these peaks therefore reflected the test compound's impact on the kinase at that concentration in that well under those conditions.
PRKACA assay at Km: In each well of a 384-well plate, 0.007 ng/ul (0.18 nM) of PRKACA enzyme (Millipore: 539482) was incubated in a total of 12.5 μl of buffer (100 mM HEPES pH 7.5, 0.015% Brij 35, 10 mM MgCl2, 1 mM DTT) with 1 μM Kemptide peptide substrate (5-FAM-LRRASLG) (Anaspec 29933) and 5 μM ATP at 25 C for 90 minutes in the presence or absence of a dosed concentration series of test compounds (1% DMSO final concentration). The reaction was stopped by the addition of 80 μl of Stop buffer (100 mM HEPES pH 7.5, 0.015% Brij 35, 35 mM EDTA and 0.2% of Coating Reagent 3 (Perkin Elmer)). The plate was then read on the EZ Reader 2 (protocol settings: −2.0 psi, upstream voltage −700, downstream voltage −2700, post sample sip 60 seconds). Data was normalized to 0% and 100% inhibition controls and the IC50 calculated using a 4-parameter fit using GraphPad Prism.

The target in experiment [2] is T2, PRKACA-DNAJB1 (Homo sapiens, UniProt P17612).
T2 construct: DNAJB1 (fusion partner, P25685); the other entry of the earlier key: DNAJB1 (P25685, DnaJ homolog subfamily B member 1)
Description: PRKACA-DNAJB1 enzyme assay (EZ Reader 2 electrophoretic mobility shift). The settings on record: read-out: Enz PRKACA-DNAJB1 IC50. It is filed as biochemical. The procedure:
as §1
A general note: In EMSA bound probe runs differently from free probe, usually more slowly.

Experiment [3] concerns PKA (phosphorylation of VASP on Serine 157). The experiment in a line: Cellular potency assay: P-VASP(157) HTRF in Forskolin-stimulated Huh7 cells. Type of experiment: cell-based. Conditions: Homo sapiens, Huh-7, 4 hours compound, 5 μM Forskolin 30 minutes, read-out: Phos VASP(S157) IC50. The text has this: PKA directly phosphorylate VASP on Serine 157. Phosphorylation of VASP on Serine 157. P-VASP(157) was therefore used as a readout of PKA cellular activity. P-VASP(157) was detected with a HTRF assay, which is based on a TR-FRET sandwich immunoassay-based format comprising two specific anti-VASP antibodies following the manufactors protocol (Cisbio, Catalog No. 63ADK066PEH). PKA was activated in the assay by the addition of Forskolin (Sigma-Aldrich, Catalog No. F3917).
Dose response in Forskolin-stimulated human Huh7 cells was measured as follows. Briefly, Huh7 cells were plated at a density of 2×10^4 cells per well in a 384-well opti-well cell culture plate in 15 μl of serum- and phenol-free Dulbecco's Modified Eagle Medium (DMEM, Gibco Catalog No. 21063-029), and incubated for over night at 37° C., 5% CO2. The next day, 3 μl of a dosed concentration series of test compound (0.24%) DMSO final concentration) was added to the wells, and the cells were incubated for an additional 4 hours at 37° C., 5% CO2. 2 μl of Forskolin was added at a final concentration of 5 μM and the plates were incubated for 30 minutes at 37° C., 5% CO2. 5 μl of lysis buffer containing 1% HALT protease cocktail inhibitors (ThermoFisher, Catalog No. 78430), was added to the cells and the mixture was incubated under gentle shaking for 30 min at room temperature. 10 μl of this lysate was transferred to a 384-well proxi plate and 2.5 μL of the premixed antibody solution was added. An antibody solution was prepared by combining phopho-VASP cryptate antibody and phospho-VASP d2 antibody, at twenty-fold dilution into a buffer solution following the manufactors' protocol. The lysate and antibody mixture was incubated for either 3 h at room temperature or overnight at 4° C. The fluorescence emission at two different wavelengths (665 nm and 620 nm) was read on an EnVision instrument.

pIC50: −log10 of the molar value.

`O=C(N[C@@H]1c2ccccc2C[C@@H]1CO)c1ccc(-c2ccnc3[nH]ccc23)cc1` (single isomer, unassigned) [Compound 108]: the values for the negative-log IC50 (pIC50) in experiment [1], in experiment [2] and in experiment [3] were not below 9.00, not below 9.00 and more than 7.30, respectively.
With `O=C(N[C@H]1C[C@@H](O)c2cccc(F)c21)c1ccc(-c2ccnc3[nH]ccc23)nc1` (single isomer, unassigned) [Compound 119], the results for the negative logarithm of the IC50 (pIC50) in experiment [1], in experiment [2] and in experiment [3] were not below 9.00, 8.30 to 9.00 and less than 7.00, respectively.
On to `O=C(N[C@H]1CCc2cc(C(F)F)ccc21)c1ccc(-c2ccnc3[nH]ccc23)cc1` (single isomer, unassigned) [Compound 125], for which the values for the pIC50 in experiment [1], in experiment [2] and in experiment [3] were not below 9.00, not below 9.00 and more than 7.30, respectively.
As for `C[C@H]1Oc2cccc(F)c2[C@@H](NC(=O)c2ccc(-c3ccnc4[nH]ccc34)nc2)[C@H]1O` (single isomer, unassigned) [Compound 136], the pIC50 in experiment [1] was not below 9.00; in experiment [2], not below 9.00; in experiment [3] it was 7.00 to 11.00.
Turning to `Cc1c[nH]c2nccc(-c3ccc(C(=O)N[C@@H]4c5c(F)cc(C(F)F)cc5OCC4O)cn3)c12` (single isomer, unassigned) [Compound 171], the pIC50 in experiment [1] was not below 9.00; in experiment [2], not below 9.00; in experiment [3], more than 7.30.
With `Cc1c[nH]c2nccc(-c3ccc(C(=O)N[C@@H]4c5c(F)cc(C(F)F)cc5OCC4O)cn3)c12` (single isomer, unassigned) [Compound 172], the pIC50 is not below 9.00 in experiment [1], not below 9.00 in experiment [2] and more than 7.30 in experiment [3].
Turning to `N[C@@H]1Cc2ccccc2[C@H]1NC(=O)c1ccc(-c2ccnc3[nH]ccc23)cc1` [Compound 100, N-[(1R,2R)-2-Amino-2,3-dihydro-1H-inden-1-yl]-4-{1H-pyrrolo[2,3-b]pyridin-4-yl}benzamide], the pIC50 was not below 9.00 in experiment [1], not below 9.00 in experiment [2] and more than 7.30 in experiment [3].
With `O=C(N[C@@H]1c2ccccc2C[C@@H]1O)c1ccc(-c2ccnc3[nH]ccc23)cc1` [Compound 101, N-[(1R,2S)-2-Hydroxy-2,3-dihydro-1H-inden-1-yl]-4-{1H-pyrrolo[2,3-b]pyridin-4-yl}benzamide], the pIC50 was not below 9.00 in experiment [1], not below 9.00 in experiment [2] and more than 7.30 in experiment [3].
For `O=C(N[C@@H]1c2ccccc2C[C@H]1O)c1ccc(-c2ccnc3[nH]ccc23)cc1` [Compound 102], the pIC50 in experiment [1] was not below 9.00; in experiment [2], not below 9.00; in experiment [3], 7.00 to 11.00.
As to `O=C(N[C@H]1CCOc2ccccc21)c1ccc(-c2ccnc3[nH]ccc23)cc1` [Compound 103], the values for the pIC50 in experiment [1], in experiment [2] and in experiment [3] were not below 9.00, not below 9.00 and more than 7.30, respectively.
On to `O=C(N[C@@H]1c2ccccc2C[C@H]1F)c1ccc(-c2ccnc3[nH]ccc23)cc1` [Compound 104, N-((1R,2R)-2-Fluoro-2,3-dihydro-1H-inden-1-yl)-4-(1H-pyrrolo[2,3-b]pyridin-4-yl)benzamide], for which the figures for the pIC50 in experiment [1], in experiment [2] and in experiment [3] were not below 9.00, not below 9.00 and 7.00 to 11.00, respectively.
Take `CN(C)C(=O)[C@H]1N([C@@H]2Cc3cccc(Cl)c3[C@H]2NC(=O)c2ccc(-c3ccnc4[nH]ccc34)nc2)CC1(C)C` [Compound 192, N-[(1R,2R)-7-Chloro-2-[(2S)-2-(dimethylcarbamoyl)-3,3-dimethylazetidin-1-yl]-2,3-dihydro-1H-inden-1-yl]-6-{1H-pyrrolo[2,3-b]pyridin-4-yl}pyridine-3-carboxamide]: the negative-log IC50 (pIC50) in experiment [1] is not below 9.00; in experiment [3], more than 7.30.
As for `CN(C)C(=O)[C@H]1N([C@@H]2Cc3cccc(Cl)c3[C@H]2NC(=O)c2ccc(-c3ccnc4[nH]ccc34)cn2)CC1(C)C` [Compound 193], the figures for the pIC50 in experiment [1] and in experiment [3] were not below 9.00 and more than 7.30, respectively.

The values above are taken from patent US12583856B2, “Inhibitors of protein kinase A” (Blueprint Medicines Corporation, priority 2021, dated 2026).
